Test results published in the NIST ThermoML archive (doi:10.1021/je060271a).

Conditions: 283.15 K, Liquid, Vibrating tube method

CCCCCCCC(=O)OCC(COC(=O)CCCCCCC)(COC(=O)CCCCCCC)COC(=O)CCCCCCC [pentaerythritol tetraoctanoate]
Conditions | mass density [kg/m3]
16618 kPa | 979.5
16646 kPa | 979.5
16674 kPa | 979.5
16703 kPa | 979.6
16736 kPa | 979.5
16765 kPa | 979.6
16794 kPa | 979.5
16827 kPa | 979.7
16856 kPa | 979.7
16890 kPa | 979.7
16919 kPa | 979.7
16949 kPa | 979.6
16980 kPa | 979.7
17009 kPa | 979.6
17039 kPa | 979.7
17073 kPa | 979.7
17102 kPa | 979.7
17138 kPa | 979.7
17168 kPa | 979.9
17198 kPa | 979.9
17227 kPa | 979.7
17264 kPa | 979.9
17293 kPa | 979.9
17323 kPa | 979.8
17360 kPa | 979.9
17390 kPa | 979.9
17427 kPa | 979.9
17458 kPa | 980
17488 kPa | 980
17519 kPa | 979.9
17556 kPa | 980
17588 kPa | 980
17619 kPa | 980
17657 kPa | 980
17688 kPa | 980.1
17726 kPa | 980.1
17758 kPa | 980.1
17790 kPa | 980.1
17823 kPa | 980.2
17862 kPa | 980.2
17894 kPa | 980.2
17926 kPa | 980.1
17966 kPa | 980.2
17998 kPa | 980.1
18037 kPa | 980.2
18070 kPa | 980.2
18103 kPa | 980.3
18137 kPa | 980.4
18177 kPa | 980.3
18210 kPa | 980.4
18244 kPa | 980.4
18285 kPa | 980.3
18319 kPa | 980.3
18360 kPa | 980.5
18394 kPa | 980.4
18429 kPa | 980.3
18470 kPa | 980.4
18504 kPa | 980.5
18539 kPa | 980.6
18581 kPa | 980.6
18616 kPa | 980.6
18652 kPa | 980.5
18694 kPa | 980.6
18731 kPa | 980.6
18766 kPa | 980.8
18802 kPa | 980.7
18846 kPa | 980.7
18882 kPa | 980.7
18919 kPa | 980.7
18963 kPa | 980.7
18999 kPa | 980.8
19044 kPa | 980.7
19081 kPa | 980.7
19118 kPa | 980.8
19155 kPa | 980.8
19200 kPa | 980.9
19238 kPa | 980.9
19276 kPa | 980.8
19320 kPa | 980.9
19357 kPa | 980.9
19394 kPa | 980.9
19437 kPa | 981
19472 kPa | 980.9
19537 kPa | 981
19587 kPa | 981
19666 kPa | 981.2
19710 kPa | 981.2
19746 kPa | 981.2
19773 kPa | 981.1
19802 kPa | 981.2
19829 kPa | 981.2
19855 kPa | 981.2
19888 kPa | 981.2
19915 kPa | 981.2
19942 kPa | 981.4
19976 kPa | 981.2
20003 kPa | 981.3
20036 kPa | 981.3
20064 kPa | 981.4
20092 kPa | 981.3
20120 kPa | 981.4
20156 kPa | 981.4
20180 kPa | 981.4
20215 kPa | 981.4
20244 kPa | 981.3
20280 kPa | 981.5
20310 kPa | 981.5
20341 kPa | 981.5
20376 kPa | 981.5
20397 kPa | 981.5
20414 kPa | 981.5
20435 kPa | 981.5
20452 kPa | 981.6
20469 kPa | 981.5
20490 kPa | 981.5
20508 kPa | 981.6
20525 kPa | 981.6
20543 kPa | 981.7
20563 kPa | 981.5
20581 kPa | 981.4
20598 kPa | 981.6
20619 kPa | 981.6
20637 kPa | 981.5
20658 kPa | 981.6
20676 kPa | 981.7
20694 kPa | 981.6
20715 kPa | 981.7
20733 kPa | 981.6
20751 kPa | 981.7
20769 kPa | 981.6
20790 kPa | 981.8
20808 kPa | 981.7
20830 kPa | 981.8
20848 kPa | 981.6
20866 kPa | 981.7
20884 kPa | 981.7
20905 kPa | 981.7
20923 kPa | 981.9
20942 kPa | 981.7
20964 kPa | 981.8
20982 kPa | 981.9
21004 kPa | 981.8
21022 kPa | 981.9
21040 kPa | 981.9
21059 kPa | 981.9
21081 kPa | 981.8
21099 kPa | 981.9
21118 kPa | 982
21140 kPa | 981.8
21159 kPa | 982
21181 kPa | 982
21200 kPa | 981.9
21219 kPa | 981.9
21238 kPa | 982
21258 kPa | 981.8
21280 kPa | 981.9
21299 kPa | 982
21318 kPa | 982
21341 kPa | 982.1
21360 kPa | 982
21379 kPa | 982.1
21402 kPa | 982.1
21421 kPa | 982.1
21440 kPa | 982
21460 kPa | 982
21483 kPa | 982
21502 kPa | 982.1
21525 kPa | 982.1
21545 kPa | 982.1
21564 kPa | 982.1
21584 kPa | 982.1
21607 kPa | 982.2
21626 kPa | 982
21647 kPa | 982.2
21670 kPa | 982.1
21690 kPa | 982.2
21710 kPa | 982.1
21730 kPa | 982
21755 kPa | 982.2
21775 kPa | 982.2
21795 kPa | 982.3
21815 kPa | 982.3
21839 kPa | 982.3
21859 kPa | 982.2
21879 kPa | 982.2
21898 kPa | 982.2
21922 kPa | 982.3
21943 kPa | 982.2
21963 kPa | 982.3
21987 kPa | 982.4
22008 kPa | 982.4
22033 kPa | 982.3
22054 kPa | 982.4
22074 kPa | 982.4
22094 kPa | 982.3
22115 kPa | 982.4
22140 kPa | 982.4
22160 kPa | 982.5
22185 kPa | 982.5
22205 kPa | 982.4
22226 kPa | 982.4
22251 kPa | 982.5
22271 kPa | 982.4
22292 kPa | 982.4
22318 kPa | 982.5
22339 kPa | 982.5
22360 kPa | 982.5
22382 kPa | 982.4
22407 kPa | 982.7
22428 kPa | 982.6
22453 kPa | 982.7
22474 kPa | 982.6
22496 kPa | 982.5
22517 kPa | 982.5
22543 kPa | 982.6
22564 kPa | 982.6
22586 kPa | 982.4
22612 kPa | 982.6
22634 kPa | 982.6
22655 kPa | 982.6
22681 kPa | 982.8
22703 kPa | 982.7
22725 kPa | 982.7
22822 kPa | 982.8
22844 kPa | 982.8
22866 kPa | 982.8
22889 kPa | 982.8
22916 kPa | 982.7
22938 kPa | 982.9
22961 kPa | 982.8
22987 kPa | 982.8
23010 kPa | 982.8
23032 kPa | 982.9
23059 kPa | 982.8
23082 kPa | 982.9
23104 kPa | 982.8
23132 kPa | 983
23154 kPa | 982.9
23177 kPa | 982.9
23204 kPa | 982.9
23227 kPa | 982.9
23250 kPa | 983
23278 kPa | 983
23301 kPa | 982.9
23324 kPa | 983
23348 kPa | 982.9
23375 kPa | 983.1
23398 kPa | 983.1
23422 kPa | 983.1
23450 kPa | 983
23473 kPa | 983
23497 kPa | 983.1
23525 kPa | 983.2
23549 kPa | 983.1
23573 kPa | 983.2
23597 kPa | 983.1
23625 kPa | 983.2
23649 kPa | 983.1
23672 kPa | 983.2
23701 kPa | 983.3
23725 kPa | 983.2
23753 kPa | 983.2
23777 kPa | 983.1
23801 kPa | 983.2
23831 kPa | 983.2
23857 kPa | 983.3
23881 kPa | 983.3
23905 kPa | 983.4
23934 kPa | 983.2
23959 kPa | 983.3
23983 kPa | 983.4
24008 kPa | 983.3
24038 kPa | 983.2
24062 kPa | 983.4
24087 kPa | 983.3
24117 kPa | 983.4
24142 kPa | 983.3
24168 kPa | 983.5
24194 kPa | 983.5
24219 kPa | 983.5
24248 kPa | 983.5
24273 kPa | 983.5
24304 kPa | 983.4
24329 kPa | 983.6
24354 kPa | 983.5
24385 kPa | 983.5
24410 kPa | 983.5
24436 kPa | 983.5
24466 kPa | 983.6
24492 kPa | 983.7
24518 kPa | 983.6
24544 kPa | 983.7
24576 kPa | 983.6
24601 kPa | 983.7
24632 kPa | 983.6
